Laboratory results published in BindingDB's records for doi:10.1021/jm00364a029 (1983).

Tests used:
[1] = biological target: cGMP-specific 3',5'-cyclic phosphodiesterase (Homo sapiens, UniProt O76074); experiment: ChEBML_217497
Description: Inhibition of human lung high-affinity cGMP phosphodiesterases (0.5-2 uM/L)

[2] = biological target: cGMP-dependent 3',5'-cyclic phosphodiesterase (Homo sapiens, UniProt O00408); experiment: ChEBML_217498
Description: Inhibition of human lung low-affinity cGMP phosphodiesterases (10-50 uM/L)

Chain of cGMP-dependent 3',5'-cyclic phosphodiesterase (O00408 whole entry): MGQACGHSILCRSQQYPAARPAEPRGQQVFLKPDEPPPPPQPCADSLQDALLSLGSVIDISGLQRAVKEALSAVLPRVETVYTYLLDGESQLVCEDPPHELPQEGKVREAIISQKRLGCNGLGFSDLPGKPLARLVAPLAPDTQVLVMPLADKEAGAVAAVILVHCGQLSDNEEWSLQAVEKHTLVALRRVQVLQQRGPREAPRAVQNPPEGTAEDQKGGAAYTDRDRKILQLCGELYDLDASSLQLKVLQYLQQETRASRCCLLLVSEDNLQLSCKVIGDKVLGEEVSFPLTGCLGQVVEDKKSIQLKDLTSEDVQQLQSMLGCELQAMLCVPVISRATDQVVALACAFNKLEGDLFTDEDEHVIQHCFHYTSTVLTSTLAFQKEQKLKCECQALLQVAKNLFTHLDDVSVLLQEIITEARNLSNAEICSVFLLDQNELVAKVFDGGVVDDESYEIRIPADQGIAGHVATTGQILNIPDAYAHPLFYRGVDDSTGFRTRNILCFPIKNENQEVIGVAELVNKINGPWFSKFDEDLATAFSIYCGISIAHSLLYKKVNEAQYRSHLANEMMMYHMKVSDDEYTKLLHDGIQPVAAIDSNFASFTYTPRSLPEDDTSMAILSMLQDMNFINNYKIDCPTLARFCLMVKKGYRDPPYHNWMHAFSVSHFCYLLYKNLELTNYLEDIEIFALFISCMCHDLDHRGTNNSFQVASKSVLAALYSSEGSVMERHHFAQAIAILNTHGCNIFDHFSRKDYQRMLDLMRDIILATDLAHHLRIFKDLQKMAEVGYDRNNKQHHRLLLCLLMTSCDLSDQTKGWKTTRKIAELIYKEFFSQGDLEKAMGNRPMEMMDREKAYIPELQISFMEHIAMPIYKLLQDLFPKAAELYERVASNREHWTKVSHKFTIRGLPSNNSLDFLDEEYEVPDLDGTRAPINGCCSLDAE

Row | Compound | Ki [1] | Ki [2]
1 | CC(O)Cn1cnc2c1c(=O)n(C)c(=O)n2C (stereo unspecified) [7-(2-Hydroxy-propyl)-1,3-dimethyl-3,7-dihydro-purine-2,6-dione(Proxyphylline)] | 600 µM | 600 µM
2 | C[C@@H](O)Cn1cnc2c1c(=O)n(C)c(=O)n2C [(R)-7-(2-hydroxypropyl)-1,3-dimethyl-1H-purine-2,6(3H,7H)-dione] | 600 µM | 600 µM
3 | C[C@H](O)Cn1cnc2c1c(=O)n(C)c(=O)n2C [(S)-7-(2-hydroxypropyl)-1,3-dimethyl-1H-purine-2,6(3H,7H)-dione] | 600 µM | 700 µM
